Where only a bound is given, the exact number is not on record here.

For this assay, the target named is T1, human TGR5 (Homo sapiens, UniProt Q8TDU6).
T1 construct: expressed in transfected cells; host or cells: HEK293
T1 sequence (Q8TDU6 1-330): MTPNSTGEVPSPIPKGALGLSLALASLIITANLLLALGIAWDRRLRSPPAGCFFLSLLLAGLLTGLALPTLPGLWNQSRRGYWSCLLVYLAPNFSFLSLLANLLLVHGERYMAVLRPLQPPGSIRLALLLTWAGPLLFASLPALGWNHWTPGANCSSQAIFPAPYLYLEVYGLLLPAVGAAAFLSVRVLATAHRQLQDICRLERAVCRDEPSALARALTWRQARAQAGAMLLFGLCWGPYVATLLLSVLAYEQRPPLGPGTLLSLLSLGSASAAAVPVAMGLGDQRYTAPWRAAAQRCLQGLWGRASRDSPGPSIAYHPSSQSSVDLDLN
Description: Cell-based TGR5 assay (cAMP generation, HTRF). As to conditions: HEK293 cells stably transfected with human TGR5; cAMP by HTRF; 30 minutes at 37° C.; read-out: pEC50 Human TGR5 (converted). An outline of the steps:
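Read-out was HTRF detection of cAMP, converted to concentration via a standard curve and fitted (3-parameter logistic) for pEC50 and maximal response. Agonist stimulation used HEK293 cells stably transfected with human TGR5, incubated 30 min at 37° C in IBMX-containing buffer at 0.05 nM to 10 μM compound.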
Background: In TR-FRET formats the signal depends on donor and acceptor labels being close together.
For `NS(=O)(=O)CCN(CCCCc1cc(Cl)c(COC2(c3cnccc3-c3ccccc3OC3CC3)CC2)cc1Cl)C(=O)[C@H](O)[C@@H](O)[C@H](O)[C@H](O)CO` [Compound I-84, (2R,3S,4R,5R)-N-{4-[2,5-dichloro-4-({1-[4-(2-cyclopropoxyphenyl)pyridin-3-yl]cyclopropoxy}methyl)phenyl]butyl}-2,3,4,5,6-pentahydroxy-N-(2-sulfamoylethyl)hexanamide], the EC50 is under 100 nM.

As for `C[C@H](O)CN(CCCCc1cc(Cl)c(COC2(c3cnccc3-c3ccccc3OC3CC3)CC2)cc1Cl)C(=O)[C@@H](O)[C@@H](O)[C@H](O)[C@@H](O)CO` [Compound I-215, (2S,3S,4R,5S)-N-{4-[2,5-dichloro-4-({1-[4-(2-cyclopropoxyphenyl)pyridin-3-yl]cyclopropoxy}methyl)phenyl]butyl}-2,3,4,5,6-pentahydroxy-N-[(2S)-2-hydroxypropyl]hexanamide], the EC50 was under 100 nM.

As for `O=C(NCCOCC[S+]([O-])c1ccc(Cl)c(COC2(c3cnccc3-c3ccccc3OC3CC3)CC2)c1)NC[C@H](O)[C@@H](O)[C@H](O)[C@H](O)CO` (stereo partly drawn) [Compound I-491, 1-[2-(2-[[4-chloro-3-([1-[4-(2-cyclopropoxyphenyl)pyridin-3-yl]cyclopropoxy]methyl)benzene]sulfinyl]ethoxy)ethyl]-3-[(2S,3R,4R,5R)-2,3,4,5,6-pentahydroxyhexyl]urea], the EC50 was 126 to 1000 nM.

In the case of `CS(=O)(=O)CCN(CCCCNS(=O)(=O)c1ccc(Cl)c(COC2(c3cnccc3-c3ccccc3OC3CC3)CC2)c1)C(=O)[C@@H](O)[C@@H](O)[C@H](O)[C@@H](O)CO` [Compound I-457, (2S,3S,4R,5S)-N-{4-[4-chloro-3-({1-[4-(2-cyclopropoxyphenyl)pyridin-3-yl]cyclopropoxy}methyl)benzenesulfonamido]butyl}-2,3,4,5,6-pentahydroxy-N-(2-methanesulfonylethyl) hexanamide], the EC50 was under 100 nM.

`O=C(NC[C@H](O)[C@@H](O)[C@H](O)[C@H](O)CO)NC1CN(S(=O)(=O)c2ccc(Cl)c(COC3(c4cnccc4-c4ccccc4OC4CC4)CC3)c2)C1` [Compound I-427, 1-{1-[4-chloro-3-({1-[4-(2-cyclopropoxyphenyl)pyridin-3-yl]cyclopropoxy}methyl)benzenesulfonyl]azetidin-3-yl}-3-[(2S,3R,4R,5R)-2,3,4,5,6-pentahydroxyhexyl]urea]: the EC50 is 126 to 1000 nM.

For the compound `Cc1ccc(Cl)c(CNC2(c3cnccc3-c3ccccc3OC3CC3)CC2)n1` [Compound I-35, N-[(3-chloro-6-methylpyridin-2-yl)methyl]-1-[4-(2-cyclopropoxyphenyl)pyridin-3-yl]cyclopropan-1-amine], the EC50 is under 100 nM.

Turning to `CC(OCc1cc(S(=O)(=O)N(CCCCNC(=O)N[C@@H](CO)[C@@H](O)[C@H](O)[C@H](O)CO)C(C)C)ccc1Cl)c1cnccc1-c1ccccc1OC1CC1` (stereo partly drawn) [Compound I-752, 4-chloro-3-((1-(4-(2-cyclopropoxyphenyl)pyridin-3-yl)ethoxy)methyl)-N-isopropyl-N-(4-(3-((2S,3R,4S,5R)-1,3,4,5,6-pentahydroxyhexan-2-yl)ureido)butyl)benzenesulfonamide], the EC50 is under 100 nM.

As for `CN(C)S(=O)(=O)c1ccc(Cl)c(COC2(c3cnccc3-c3ccccc3OC3CC3)CC2)c1` [Compound I-393, 4-chloro-3-([1-[4-(2-cyclopropoxyphenyl)pyridin-3-yl]cyclopropoxy]methyl)-N,N-dimethylbenzene-1-sulfonamide], the EC50 was under 100 nM.

As for `O=C(NCCCCNS(=O)(=O)c1ccc(Cl)c(COC2(c3cnccc3-c3ccccc3OC3CC3)CC2)c1)NC[C@H](O)[C@@H](O)[C@H](O)[C@H](O)CO` (stereo in doubt) [Compound I-401, 1-{4-[4-chloro-3-({1-[4-(2-cyclopropoxyphenyl)pyridin-3-yl]cyclopropoxy}methyl)benzenesulfonamido]butyl}-3-[(2S,3R,4R,5R)-2,3,4,5,6-pentahydroxyhexyl]urea], the EC50 is under 100 nM.
